The source of these data is US20260345584A1, “METHODS AND PHARMACEUTICAL COMPOSITIONS FOR TREATING CHEMOTHERAPY-INDUCED PERIPHERAL NEUROPATHY WITH EG5 INHIBITORS” (UNIVERSITY OF MIAMI, priority 2023, published 2026).

One assay has as its system cutaneous sensory axons. Kind of assay: Axon branch number in caudal fin (acetylated tubulin staining). Format: in vivo, zebrafish. Conditions: for axon branch number: 96 hr; for axon branches in the caudal fin: 96 hr paclitaxel. On the procedure: The stock solution was divided into 20-30 μl aliquots and stored at −20 °C until use (maximal 6 months). Immediately prior to use, paclitaxel was diluted in Ringer's solution and added to dechorionated larval zebrafish. The larval fish were placed individually or in small groups into wells of a 12-well plate containing the treatment solutions. The control group was 0.05% DMSO. Plates were incubated at 28.5 °C and protected from light. Treatment lengths are indicated in the Drawings, Description of the Drawings, and Examples where appropriate. […] EMD534085, Eg5 inhibitor (MedChemExpress, Cat. No. HY-15000) was diluted in 100% DMSO to make a 10 mM stock solution and stored at −20 °C. […] The solutions were exchanged every 48 hr.
Larval fish were transferred into […] glass vials and fixed in 4% paraformaldehyde (PFA)/1× Phosphate-buffered saline (PBS) for 1.5 hr at room temperature, with gentle rocking. Following a 5-minute incubation in 1×PBS+0.1% Tween-20 (PBST), zebrafish were permeabilized in 1×PBS+0.1% Triton X-100 for 10-30 min. Larval fish were transferred into 2 ml reaction tubes and incubated in blocking buffer (1×PBST+5% BSA) for 30 min at room temperature, with rocking. Larval fish were further incubated overnight in antibody solution (Millipore Sigma, Cat. No. AB3201, 1:300 rabbit anti-GluTub; Sigma, Cat No. T6793, 1:500 mouse anti-acetylated tubulin) in blocking buffer at 4 °C, on a rotator. The next morning, larval fish were transferred into 6-well plates and washed 4×15 min in 1×PBST at room temperature, with rocking. This was followed by incubation in secondary antibody (goat anti-rabbit Cy5, Abcam, Cat. No. ab97077; goat anti-mouse Cy3, Abcam, Cat. No. ab97035) and 1:10,000 Hoechst 33342 (ThermoFisher Scientific, Cat. No. 62249, 20 mM solution) in blocking buffer for 1 hr at room temperature, with rocking. Fish were covered to avoid bleaching. Fish were washed for 4×15 min in 1×PBST at room temperature, with rocking, and immediately mounted for imaging on glass bottom petri dishes (Spectrum Laboratory Products, Cat. No. 750-10403-UE) using 1% agarose (Thermo Fisher Scientific, Cat. No. 16520050). A 1:200 dilution was used for mouse alpha-tubulin antibody (Proteintech, Cat. No. 66031-1) and a 1:1,000 dilution of donkey anti-mouse IgG Alexa488 (ThermoFisher Scientific, Cat. No. A-21202) for secondary detection. For Nox1 immunostaining, a 1:300 dilution of primary antibody (Anti-NOX1 Rabbit Polyclonal Antibody, Avantar, Cat. No. 102164-796) and a 1:1,000 dilution of secondary goat anti-rabbit Cy2 (Abcam, Cat. No. ab6940) antibody was used. Eg5 antibody (Abcam, Cat. No. 61199) was used at a 1:100 and secondary goat anti-rabbit Cy2 (Abcam, Cat. No. ab6940) at 1:1,000 dilution.
Axon branch number quantifications were performed by drawing a 50 μm line across the dorsal, medial, and ventral caudal fin edge region at a distance of 100 μm parallel to the fin edge (which was determined to be the most reliable region to quantify distal branch numbers). Axons traversing this line were counted and averaged per treatment group. Axonal fluorescence measurements were taken using the Imaris Spots function by manually placing spots along the axon and using the fluorescence intensity profile measurements MatLab tool.
Stretching was performed after 96 hr treatment, followed by 2 hr post-stretch fixation, and staining for detection of acetylated tubulin in axons.
To further validate Eg5 as the pharmacological target of EMD534085 in axon regeneration, zebrafish injected with kif11 CRISPR oligo were also analyzed.

The test system of assay [1] is microtubules in keratinocytes. Kind of assay: EB3-GFP microtubule growth dynamics in keratinocytes. The class given is in vivo, zebrafish. The method, then: Fish were anesthetized in 2-phenoxyethanol (1:1000) in Ringer's solution prior to imaging and mounted in 1.2% agarose. EB3-GFP and Tau-Bfp2 were imaged with a scan speed kept at the maximum level in single slice mode with […] for a total of 60s to capture microtubule dynamics. h2a:H2A-GFP time-lapse recordings were produced (Zeiss LSM880 AiryScan confocal microscope) with 1 μm sections recorded every 10 min for 12 hr using 800×800 pixels. All other live fish were imaged using 1024×1024 pixels.
EB3-GFP tracking was done in Fiji using the MTrackJ plugin to trace microtubules over time and create Kymographs, measure the velocity, track length, and comet duration. Tracking was also performed using the Spots and Surface tools in Imaris. Settings were initially automatically detected to fit the fluorescence and subsequently modified manually for improved fit. Settings were maintained between treatment groups.
To validate this, microtubule growth dynamics were characterized in basal keratinocytes expressing the microtubule plus-end binding protein, EB3-GFP (courtesy of R. Koester) (Distel et al., 2010, The Journal of cell biology 191: 875-890). […] However, a small proportion of keratinocytes also harbored uniformly labelled EB3-positive microtubules, consistent with previous observations in murine axons (Kleele et al., 2015, Proceedings of the National Academy of Sciences of the United States of America 112: 7501-7506). […] This behavior therefore contrasts the curved conformation of stable dfMTs.

Assay [2] deals with epidermal keratinocytes (detyrosinated microtubules). The assay is described as follows: Hind paw pad skin GluTub/DAPI histology in mice. Format: in vivo, mouse. Conditions: 24 mg/kg paclitaxel i.p. The method, then:
Paws and back skin were collected at predetermined time points, placed in 10% formalin, and stored overnight at 4 °C. Samples were embedded in paraffin and sectioned at 7 μm, deparaffinized, washed with PBS, and incubated at room temperature for 5 min in 0.1% Triton X-100 in PBS and then blocked for 30 min (5% BSA). Sections were incubated with primary antibody diluted in blocking solution, overnight at 4 °C in a humidity chamber. Following PBS washes, sections were incubated for 1 h at room temperature with a secondary antibody. Tissues were mounted and assessed for staining. Antibodies used were against detyrosinated tubulin Millipore AB3201, p-KIF11 Invitrogen PA5-38647, alpha-tubulin Proteintech 66031-1-Ig, mouse Alexa Fluor 488 Invitrogen A21202, and rabbit Alexa flour 546 Invitrogen A10040. DAPI was used for nuclei counterstaining.
Immunofluorescence staining was performed with a widefield microscopy using a Plan-Apochromatix 100× objective lens (oil immersion, numerical aperture [NA]1.4), 20× and 10× objective lens on inverted Zeiss Axio Observer Z1 using AxioVision 4.8 software. Images were acquired using a monochrome Zeiss Axio Cam MRm CCD camera. Images were processed with the NIH Image J software.
These mice were then sacrificed and the skin of the hind paw pad was fixed in 4% paraformaldehyde, followed by sectioning and staining with 1) anti-GluTub (to detect detyrosinated microtubules) and 2) DAPI to detect nuclei.

The mark [3] stands for this setting: alone or with EMD534085 20 mg/kg x3.

Molecules are shown by their SMILES.

Take `CN(C)CCNC(=O)NC[C@H]1CC[C@@H]2[C@H](O1)c1cc(C(F)(F)F)ccc1N[C@H]2c1ccccc1` [EMD534085]: the axon branch number in the assay with cutaneous sensory axons (EMD534085 alone) amounted to 10.25±0.47 branches/50 μm. In assay [1] (EMD534085 with 22 μM paclitaxel), the “paclitaxel-dependent microtubule growth dynamics” value is recorded as “did not alter the effects induced by paclitaxel alone”. Also, the “number of epidermal keratinocytes with dMT” value in assay [2] (setting [3]) is reported as “The increase was dampened when paclitaxel was injected with EMD534085”.

On to `CC(=O)O[C@H]1C(=O)[C@@]2(C)[C@H]([C@H](OC(=O)c3ccccc3)[C@]3(O)C[C@H](OC(=O)[C@H](O)[C@@H](NC(=O)c4ccccc4)c4ccccc4)C(C)=C1C3(C)C)[C@]1(OC(C)=O)CO[C@@H]1C[C@@H]2O` [paclitaxel], for which the axon branch number with cutaneous sensory axons (100 nM paclitaxel, alone or with 48 hr EMD534085) is 9.86±0.43 branches/50 μm; in the assay on cutaneous sensory axons (22 μM paclitaxel, alone or with EMD534085), 7.54±0.56 branches/50 μm. The “axon branches in the caudal fin” value was “no change was found within the cyba−/− group” in the assay with cutaneous sensory axons (cyba−/− fish) and “a decrease in axon branches” with cutaneous sensory axons (wildtype). Further, the “axon degeneration after stretching” value with cutaneous sensory axons (paclitaxel-treated and stretched cyba−/− mutants) is “rescued in paclitaxel-treated and stretched cyba−/− mutants”. Moreover, the “keratinocytes with uniform EB3 labelling” value in assay [1] (22 μM paclitaxel, 96 hr) was determined as 20.13%; in assay [1] (paclitaxel, 3 hr) it was 19.29%; in assay [1] (paclitaxel, 48 hr), 10.09%. In addition, the comet duration entry in assay [1] (paclitaxel, 3 hr) is “not affected”. In assay [1] (paclitaxel, 3 hr), the “growth velocity and track length of microtubules” value is “decreased the growth velocity and track length of microtubules”. In addition, in assay [1] (paclitaxel, 48 hr and 96 hr), the linearity of microtubules result was “further enhanced the linearity”. In assay [2], the GluTub fluorescence result is “increased GluTub fluorescence”. Further, the “brittle skin / empty regions in the stratum spinosum” value in assay [2] (setting [3]) is “brittle skin in the stratum spinosum”. In addition, the “number of epidermal keratinocytes with dMT” value in assay [2] (setting [3]) is reported as “an increase with paclitaxel treatment”.
